Our source for the TGI and GI50 values is PubChem BioAssay (NCI).

“And” between values parts separate entries of the source, which are not always exact repeats. Equal values may be shown once.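 The compound was tested at five concentrations on cells cultured in 96-well plates, with a 48-hour exposure period. The concentration for 50% growth inhibition is given as GI50. TGI: concentration producing complete growth inhibition.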

Among the test systems are UO-31 renal; MALME-3M melanoma; MOLT-4 leukemia; SK-MEL-2 melanoma; HCC-2998 colon; HCT-116 colon; SF-268 CNS; U251 CNS; SF-539 CNS; NCI-H522 lung.
Holding throughout (assay): NCI-60 cell line screen, 48 h

For the molecule `Nc1ncnc2c1ncn2C1CCC(COS(N)(=O)=O)C1` (configuration not stated), the TGI with UO-31 renal, in the experiment on MALME-3M melanoma, in the experiment on MOLT-4 leukemia, with SK-MEL-2 melanoma, in the experiment on HCC-2998 colon and in the experiment on HCT-116 colon was above 100 µM each time. In addition, the TGI with SF-268 CNS, in the experiment with U251 CNS and in the experiment with SF-539 CNS was above 100 µM each time.

As for `CC12N=NN(c3ccc([N+](=O)[O-])cc3)C1(O)c1ccccc1C2=O` (configuration not stated), the TGI in the experiment on UO-31 renal, in the experiment on MALME-3M melanoma, with NCI-H522 lung, with HCC-2998 colon, in the experiment on HCT-116 colon and in the experiment with SF-268 CNS was above 100 µM in each case. For the same molecule, the TGI in the experiment on U251 CNS and with SF-539 CNS was above 100 µM in each case.

Take `C1C[OH+]CC[OH+]CCNCC[OH+]CC[OH+]CCN1.[Cl-].[Pt+4]`: the GI50 in the experiment with UO-31 renal is above 100 µM; with MALME-3M melanoma, above 100 µM; in the experiment with NCI-H522 lung, 26.3 µM; in the experiment on MOLT-4 leukemia, above 100 µM; with HCC-2998 colon it was above 100 µM; in the experiment with HCT-116 colon, above 100 µM. The GI50 in the experiment with SF-268 CNS, in the experiment on U251 CNS and with SF-539 CNS was above 100 µM in each case. Besides, the TGI with UO-31 renal, in the experiment on MALME-3M melanoma, in the experiment with NCI-H522 lung, in the experiment with MOLT-4 leukemia, in the experiment with HCC-2998 colon and with HCT-116 colon was above 100 µM each time. For the same molecule, the TGI in the experiment on SF-268 CNS, in the experiment on U251 CNS and in the experiment with SF-539 CNS was above 100 µM throughout.

For the molecule `CC[C@@]1(O)C[C@H](OC2CC(N(C)C)C(OC3CC(O)C(OC4CCC(=O)C(C)O4)C(C)O3)C(C)O2)c2c(cc3c(c2O)C(=O)c2c(O)cccc2C3=O)[C@H]1C(=O)OC` (some centres not stated), the TGI with MALME-3M melanoma was 0.0991 µM and 0.128 µM; in the experiment on SK-MEL-2 melanoma, 0.118 µM; with HCC-2998 colon, 0.0746 µM and 0.351 µM; in the experiment with SF-268 CNS, 0.371 µM and 2.79 µM; with U251 CNS, 2.11 µM and 2.49 µM; in the experiment with SF-539 CNS, 0.0917 µM and 0.216 µM.

Consider `CS(=O)(=O)OCCN1CCN(C(=O)c2cccc3c(Nc4ccc(S(=O)(=O)N=C(N)N)cc4)c4ccccc4nc23)CC1`, for which the TGI in the experiment with UO-31 renal, in the experiment with MALME-3M melanoma, in the experiment on MOLT-4 leukemia, in the experiment with HCC-2998 colon, in the experiment with HCT-116 colon and in the experiment on SF-268 CNS was above 100 µM in each case. The TGI in the experiment with U251 CNS and in the experiment with SF-539 CNS was above 100 µM throughout.

Regarding `NCCCOCC(=O)O`, the TGI with UO-31 renal, in the experiment with MALME-3M melanoma, with MOLT-4 leukemia, with SK-MEL-2 melanoma, in the experiment on HCC-2998 colon and with HCT-116 colon was above 100 µM throughout. Also, the TGI in the experiment with SF-268 CNS, with U251 CNS and in the experiment with SF-539 CNS was above 100 µM each time.

Regarding `CC1CC#CCOC(=O)CCCC1=O` (configuration not stated), the TGI in the experiment on NCI-H522 lung, in the experiment on MOLT-4 leukemia, with HCC-2998 colon, in the experiment on HCT-116 colon, with SF-268 CNS and in the experiment on U251 CNS was above 100 µM in each case. The same molecule showed a TGI in the experiment with SF-539 CNS above 100 µM.

Regarding `COc1cc(/C=C2\CCC/C(=C\c3cc(OC)c(O)c(OC)c3)C2=O)cc(OC)c1O`, the GI50 is 2.05 µM with UO-31 renal; 1.24 µM with NCI-H522 lung; 2.97 µM in the experiment on MOLT-4 leukemia; 1.63 µM with SK-MEL-2 melanoma; 2.56 µM in the experiment with HCT-116 colon. Besides, the TGI in the experiment on UO-31 renal was 3.46 µM and 4.97 µM; with MALME-3M melanoma, 4.38 µM and 3.3 µM; with NCI-H522 lung it was 3.5 µM and 2.85 µM; in the experiment with MOLT-4 leukemia it was 75 µM and 36.5 µM; in the experiment on SK-MEL-2 melanoma it was 11.8 µM and 4.19 µM; with SF-268 CNS, above 100 µM. Also, the TGI in the experiment with U251 CNS was 2.76 µM and 3.14 µM; in the experiment on SF-539 CNS it was above 100 µM.

As for `COc1ccc(C2SCC(=O)N2NC(=O)C(O)c2ccccc2)cc1OC` (configuration not stated), the GI50 in the experiment on UO-31 renal, with NCI-H522 lung, in the experiment on MOLT-4 leukemia, with SK-MEL-2 melanoma, in the experiment with HCC-2998 colon and with HCT-116 colon was above 100 µM in each case. Moreover, the GI50 in the experiment with SF-268 CNS, with U251 CNS and in the experiment with SF-539 CNS was above 100 µM each time. Moreover, the TGI in the experiment on UO-31 renal, with NCI-H522 lung, in the experiment on MOLT-4 leukemia, in the experiment with SK-MEL-2 melanoma, in the experiment on HCC-2998 colon and in the experiment with HCT-116 colon was above 100 µM in each case. For the same molecule, the TGI in the experiment on SF-268 CNS, in the experiment on U251 CNS and in the experiment with SF-539 CNS was above 100 µM each time.

`C/C(=N\O)c1cccc(Nc2cc(-n3ccnn3)c3ccccc3n2)c1`: the GI50 in the experiment with UO-31 renal is 16.2 µM; in the experiment on NCI-H522 lung, 13.2 µM; in the experiment with MOLT-4 leukemia, 11.6 µM; in the experiment with SK-MEL-2 melanoma, 15.3 µM; in the experiment on HCC-2998 colon it was 20.5 µM; in the experiment on HCT-116 colon, 14.1 µM. The GI50 with SF-268 CNS was above 100 µM; in the experiment on U251 CNS, 19.9 µM; with SF-539 CNS, 19 µM. For the same molecule, the TGI in the experiment with UO-31 renal came out at 37.5 µM; in the experiment with NCI-H522 lung, 28.9 µM; in the experiment with MOLT-4 leukemia, 28.2 µM; in the experiment on SK-MEL-2 melanoma, 29.5 µM; in the experiment with HCC-2998 colon it was 56.5 µM; in the experiment with HCT-116 colon, 27.1 µM. Moreover, the TGI with SF-268 CNS was above 100 µM; in the experiment with U251 CNS, 62.2 µM; in the experiment on SF-539 CNS, 44 µM.

As for `O=C(Nc1ccc(F)cc1)c1ccc(NC2=C(Cl)C(=O)N(Cc3ccccc3)C2=O)cc1`, the GI50 is 10.5 µM in the experiment on UO-31 renal; 7.27 µM with NCI-H522 lung; 3.79 µM in the experiment with MOLT-4 leukemia; 5.34 µM with SK-MEL-2 melanoma; 11 µM in the experiment with HCC-2998 colon; 2.23 µM in the experiment on HCT-116 colon. The GI50 with SF-268 CNS was 4.4 µM; with U251 CNS, 11 µM; in the experiment on SF-539 CNS, 11.2 µM. Besides, the TGI in the experiment on UO-31 renal was 23.4 µM; in the experiment with NCI-H522 lung, 28.8 µM; in the experiment with MOLT-4 leukemia, 21 µM; with SK-MEL-2 melanoma it was 19.3 µM; in the experiment on HCC-2998 colon, above 100 µM; in the experiment on HCT-116 colon, 4.82 µM. Besides, the TGI in the experiment on SF-268 CNS was found to be 23.6 µM; in the experiment with U251 CNS it was 24.1 µM; in the experiment on SF-539 CNS it was 26.7 µM.
